Source: ChEMBL document CHEMBL1201862, “PubChem BioAssay data set” (2004)
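A five-concentration, 48-hour dose response in 96-well plates underlies each endpoint, interpolated linearly between surrounding concentrations. GI50 marks 50% less growth.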 Active and inactive are the calls of the source. No stated cut-off is given here; in the data, active = GI50 up to about 1.1 µM and inactive = higher.

Columns and labels:
Assay in all cases: inhibition of tumour cell growth, NCI panel, 48 h
[1] = test system: KM12
[2] = test system: UACC-62
[3] = test system: SW-620
[4] = test system: HL-60
[5] = test system: DU-145
[6] = test system: SN12C
[7] = test system: HOP-62
[8] = test system: SK-MEL-2
[9] = test system: NCI-H226
[10] = test system: MOLT-4
[11] = test system: NCI/ADR-RES
[12] = test system: SF-539
[13] = test system: A498
[14] = test system: Hs-578T
[15] = test system: SNB-75
[16] = test system: M14
[17] = test system: UO-31
[18] = test system: NCI-H460
[19] = test system: RPMI-8226
[20] = test system: SNB-19

Compound: Oc1ccc(C[C@@H]2CN[C@H](Cc3ccc(O)c(Br)c3)CN2)cc1
- GI50 [1]: > 100 µM (inactive)
- GI50 [2]: > 100 µM (inactive)
- GI50 [3]: > 100 µM (inactive)
- GI50 [4]: > 100 µM (inactive)
- GI50 [5]: > 100 µM (inactive)
- GI50 [6]: > 100 µM (inactive)
- GI50 [7]: > 100 µM (inactive)
- GI50 [8]: > 100 µM (inactive)
- GI50 [9]: > 100 µM (inactive)
- GI50 [10]: > 100 µM (inactive)
- GI50 [11]: > 100 µM (inactive)
- GI50 [12]: > 100 µM (inactive)
- GI50 [13]: > 100 µM (inactive)
- GI50 [14]: > 100 µM (inactive)
- GI50 [15]: > 100 µM (inactive)
- GI50 [16]: > 100 µM (inactive)
- GI50 [17]: > 100 µM (inactive)

Compound: Nc1ncc(Br)c(NCC2(CO)CCC2)n1
- GI50 [1]: > 100 µM (inactive)
- GI50 [2]: > 100 µM (inactive)
- GI50 [3]: > 100 µM (inactive)
- GI50 [4]: > 100 µM (inactive)
- GI50 [5]: 81.3 µM (inactive)
- GI50 [6]: > 100 µM (inactive)
- GI50 [7]: > 100 µM (inactive)
- GI50 [8]: > 100 µM (inactive)
- GI50 [9]: 66.8 µM (inactive)
- GI50 [18]: 71.9 µM (inactive)
- GI50 [10]: 80 µM (inactive)
- GI50 [11]: 95.5 µM (inactive)
- GI50 [12]: > 100 µM (inactive)
- GI50 [19]: 42.8 µM (inactive)
- GI50 [13]: 35.6 µM (inactive)
- GI50 [14]: > 100 µM (inactive)
- GI50 [15]: > 100 µM (inactive)
- GI50 [17]: 79.6 µM (inactive)

Compound: CC(C)(C)/C(O)=C\c1nc2cc(C(F)(F)F)ccc2[nH]c1=O
- GI50 [1]: > 100 µM (inactive)
- GI50 [2]: > 100 µM (inactive)
- GI50 [3]: > 100 µM (inactive)
- GI50 [4]: 0.53 µM (active)
- GI50 [5]: > 100 µM (inactive)
- GI50 [6]: > 100 µM (inactive)
- GI50 [20]: > 100 µM (inactive)
- GI50 [7]: > 100 µM (inactive)
- GI50 [8]: > 100 µM (inactive)
- GI50 [9]: > 100 µM (inactive)
- GI50 [10]: > 10 µM (inactive)
- GI50 [11]: > 100 µM (inactive)
- GI50 [19]: > 100 µM (inactive)
- GI50 [13]: > 100 µM (inactive)
- GI50 [14]: > 100 µM (inactive)
- GI50 [15]: > 100 µM (inactive)
- GI50 [16]: > 100 µM (inactive)
- GI50 [17]: > 100 µM (inactive)

Compound: CN1C(=O)C(C(N)=O)C2CC1(C)Oc1ccccc12 (stereo unspecified)
- GI50 [1]: > 100 µM (inactive)
- GI50 [2]: > 100 µM (inactive)
- GI50 [3]: > 100 µM (inactive)
- GI50 [4]: > 100 µM (inactive)
- GI50 [5]: > 100 µM (inactive)
- GI50 [6]: > 100 µM (inactive)
- GI50 [20]: > 100 µM (inactive)
- GI50 [7]: > 100 µM (inactive)
- GI50 [8]: > 100 µM (inactive)
- GI50 [9]: > 100 µM (inactive)
- GI50 [18]: > 100 µM (inactive)
- GI50 [10]: > 100 µM (inactive)
- GI50 [11]: > 100 µM (inactive)
- GI50 [19]: > 100 µM (inactive)
- GI50 [13]: > 100 µM (inactive)
- GI50 [14]: > 100 µM (inactive)
- GI50 [15]: > 100 µM (inactive)
- GI50 [16]: > 100 µM (inactive)

Compound: O=C(NCc1ccccc1)c1cc2ccccc2o/c1=N\c1cccc(C(F)(F)F)c1
- GI50 [1]: 48.6 µM (inactive)
- GI50 [2]: 52.2 µM (inactive)
- GI50 [3]: 43 µM (inactive)
- GI50 [4]: 20.5 µM (inactive)
- GI50 [5]: > 100 µM (inactive)
- GI50 [6]: 29.3 µM (inactive)
- GI50 [20]: > 100 µM (inactive)
- GI50 [7]: 85.3 µM (inactive)
- GI50 [8]: 28.6 µM (inactive)
- GI50 [9]: 29.8 µM (inactive)
- GI50 [18]: 41.2 µM (inactive)
- GI50 [10]: 23.4 µM (inactive)
- GI50 [11]: 47.1 µM (inactive)
- GI50 [19]: 30.3 µM (inactive)
- GI50 [13]: 85.1 µM (inactive)
- GI50 [14]: > 100 µM (inactive)
- GI50 [15]: 74.8 µM (inactive)
- GI50 [16]: 87.3 µM (inactive)
- GI50 [17]: 79.1 µM (inactive)

Compound: CSc1nc(NC(C)C)c2c(n1)Sc1nc3ccccc3n1N=C2
- GI50 [1]: 16.5 µM (inactive)
- GI50 [2]: 6.62 µM (inactive)
- GI50 [3]: 13.1 µM (inactive)
- GI50 [4]: > 100 µM (inactive)
- GI50 [5]: 12.7 µM (inactive)
- GI50 [6]: 10.7 µM (inactive)
- GI50 [20]: 7.57 µM (inactive)
- GI50 [7]: 5.66 µM (inactive)
- GI50 [8]: 17.9 µM (inactive)
- GI50 [9]: 0.57 µM (active)
- GI50 [18]: 6.34 µM (inactive)
- GI50 [10]: 9.84 µM (inactive)
- GI50 [11]: 6.92 µM (inactive)
- GI50 [19]: 0.335 µM (active)
- GI50 [13]: 3.09 µM (inactive)
- GI50 [14]: 20 µM (inactive)
- GI50 [16]: 40.5 µM (inactive)
- GI50 [17]: 5.32 µM (inactive)

Compound: C=C(CCOC)CCC1CCCCC(=C)C1=O (stereo unspecified)
- GI50 [1]: 63.1 µM (inactive)
- GI50 [2]: > 100 µM (inactive)
- GI50 [3]: > 100 µM (inactive)
- GI50 [4]: > 100 µM (inactive)
- GI50 [5]: > 100 µM (inactive)
- GI50 [6]: > 100 µM (inactive)
- GI50 [20]: > 100 µM (inactive)
- GI50 [7]: > 100 µM (inactive)
- GI50 [8]: > 100 µM (inactive)
- GI50 [9]: > 100 µM (inactive)
- GI50 [18]: > 100 µM (inactive)
- GI50 [10]: > 100 µM (inactive)
- GI50 [11]: > 100 µM (inactive)
- GI50 [19]: > 100 µM (inactive)
- GI50 [13]: > 100 µM (inactive)
- GI50 [14]: > 100 µM (inactive)
- GI50 [15]: > 100 µM (inactive)
- GI50 [16]: > 100 µM (inactive)
- GI50 [17]: > 100 µM (inactive)

Compound: NC(=S)Nc1ccc2c(c1)oc1ccccc12
- GI50 [1]: > 100 µM (inactive)
- GI50 [2]: > 100 µM (inactive)
- GI50 [3]: > 100 µM (inactive)
- GI50 [4]: 7.82 µM (inactive)
- GI50 [5]: > 100 µM (inactive)
- GI50 [6]: > 100 µM (inactive)
- GI50 [20]: > 100 µM (inactive)
- GI50 [7]: > 100 µM (inactive)
- GI50 [8]: > 100 µM (inactive)
- GI50 [9]: 39 µM (inactive)
- GI50 [18]: > 100 µM (inactive)
- GI50 [10]: 7.1 µM (inactive)
- GI50 [11]: > 100 µM (inactive)
- GI50 [19]: 11.7 µM (inactive)
- GI50 [13]: > 100 µM (inactive)
- GI50 [14]: > 100 µM (inactive)
- GI50 [15]: > 100 µM (inactive)
- GI50 [16]: > 100 µM (inactive)
- GI50 [17]: > 28.4 µM (inactive)

Compound: CCOC(=O)/C=C(/C=C\COC1CCCCO1)c1ccccc1 (stereo unspecified)
- GI50 [1]: 25.2 µM (inactive)
- GI50 [2]: 24.5 µM (inactive)
- GI50 [3]: 28.3 µM (inactive)
- GI50 [4]: 18.3 µM (inactive)
- GI50 [5]: 40 µM (inactive)
- GI50 [6]: 22.9 µM (inactive)
- GI50 [20]: 36.5 µM (inactive)
- GI50 [7]: > 100 µM (inactive)
- GI50 [8]: 55.2 µM (inactive)
- GI50 [9]: 70.6 µM (inactive)
- GI50 [18]: 48.1 µM (inactive)
- GI50 [10]: 20.4 µM (inactive)
- GI50 [11]: 24.5 µM (inactive)
- GI50 [19]: 27.5 µM (inactive)
- GI50 [13]: > 100 µM (inactive)
- GI50 [14]: 22.3 µM (inactive)
- GI50 [15]: 23.4 µM (inactive)
- GI50 [16]: 38.6 µM (inactive)
- GI50 [17]: 36 µM (inactive)

Compound: COc1ccc(CC2c3cc(OC)c(OC)c(OC)c3CC[N+]2(C)C)cc1Oc1ccc(CC2c3cc4c(c(OC)c3CCN2C)OCO4)cc1 (stereo unspecified)
- GI50 [1]: > 100 µM (inactive)
- GI50 [2]: > 100 µM (inactive)
- GI50 [3]: > 100 µM (inactive)
- GI50 [4]: 35.5 µM (inactive)
- GI50 [5]: > 100 µM (inactive)
- GI50 [6]: > 100 µM (inactive)
- GI50 [20]: > 100 µM (inactive)
- GI50 [8]: > 100 µM (inactive)
- GI50 [9]: > 100 µM (inactive)
- GI50 [18]: 92 µM (inactive)
- GI50 [10]: > 100 µM (inactive)
- GI50 [11]: > 100 µM (inactive)
- GI50 [12]: > 100 µM (inactive)
- GI50 [13]: > 100 µM (inactive)
- GI50 [14]: > 100 µM (inactive)
- GI50 [15]: > 100 µM (inactive)
- GI50 [16]: > 100 µM (inactive)
- GI50 [17]: > 100 µM (inactive)

Compound: NC1c2c(Cl)sc(Cl)c2C(=O)C1O (stereo unspecified)
- GI50 [1]: > 100 µM (inactive)
- GI50 [2]: 17.7 µM (inactive)
- GI50 [3]: 17.4 µM (inactive)
- GI50 [4]: 15.4 µM (inactive)
- GI50 [5]: > 100 µM (inactive)
- GI50 [6]: 15.8 µM (inactive)
- GI50 [20]: 41.3 µM (inactive)
- GI50 [8]: 73.8 µM (inactive)
- GI50 [9]: > 100 µM (inactive)
- GI50 [18]: 46 µM (inactive)
- GI50 [10]: 23 µM (inactive)
- GI50 [11]: 36.9 µM (inactive)
- GI50 [12]: 76.2 µM (inactive)
- GI50 [13]: > 100 µM (inactive)
- GI50 [14]: 35.1 µM (inactive)
- GI50 [15]: 33.6 µM (inactive)
- GI50 [16]: 32.3 µM (inactive)
- GI50 [17]: 31.9 µM (inactive)
